Data on one molecule can be found in US8436037B2, “Process for the production of amides” (Syngenta Limited, priority 2005, dated 2013).

Data set [1] can be described thus: thermodynamic stability (DSC, solubility tests and other experiments). Format: physicochemical. The following applies: compared with modification A. Here is the method: Characteristic for modification B is also the thermogram in DSC (differential scanning calorimetry, see FIG. 5). It has an endothermic peak in the range from 120° C. to 128° C. depending on purity. For example, crystal modification B in pure form has a peak temperature of 128° C. and an endothermic signal around 90 J/g. This thermogram is characteristically different from the thermogram of the modification A (see FIG. 6), which has an endothermic peak at about 112° C. and an endothermic signal of 76 J/g. The measurement was carried out on a Metier Toledo 820 DSC in a closed pan with a heating rate of 10 K/minute. The typical sample quantity is about 5 mg.

Data set [2] in a line: water solubility of crystal modifications. Format: physicochemical. To be noted: over relevant temperature ranges; compared with modification A.

With `CC(C)C1C2CCC1c1c(NC(=O)c3cn(C)nc3C(F)F)cccc12` (stereo not drawn) [modification B, syn-3-difluoromethyl-1-methyl-1H-pyrazole-4-carboxylic acid (9-isopropyl-1,2,3,4-tetrahydro-1,4-methano-naphthalen-5-yl)-amide], the thermodynamic stability result in data set [1] is recorded as “substantially better thermodynamic stability than the modification A”. The water solubility result in data set [2] was “lower than the water solubility of modification A”.
